Assay [1] deals with NCI-H292 (lung carcinoma). Briefly: MTT reduction cytotoxicity assay, NCI-H292. The format is cell-based. Conditions: Homo sapiens, 72 h incubation. Here is the method:
(§1) The human tumor cell lines used were HL-60 (promyelocytic leukemia), MCF-7 (breast adenocarcinoma) and NCI-H292 (lung carcinoma). The cells were obtained from Rio de Janeiro Cell Bank (RJ, Brazil). Cancer cells were maintained in RPMI 1640 medium or DMEN supplemented with 10% fetal bovine serum, 2 mM glutamine, 100 U/mL penicillin, 100 μg/mL streptomycin at 37° C. with 5% CO2. Cytotoxicity of (6R)-6-[(2Z)-pent-2-enyl]-5,6-dihydro-2H-pyran-2-one [(R)-(−)-Tuberolactone] against the three tumor cell lines was assessed using the 3-(4,5-dimethyl-2-thiazolyl)-2,5-diphenyl-2H tetrazolium bromide (MTT) (Sigma Aldrich Co., St. Louis, Mo., USA) reduction assay. Tumor cells were plated in 96-well plates (10^5 cells/mL for adherent cells or 3×10^5 cells/mL for Leukemia). (6R)-6-[(2Z)-pent-2-enyl]-5,6-dihydro-2H-pyran-2-one [(R)-(−)-Tuberolactone] in DMSO (0.3-25 μg/mL) were added to each well and incubated for 72 h. Control groups received the same amount of DMSO. After 69 h of treatment, 25 μL of MTT (5 mg/mL) was added. Three hours later, the MTT formazan product was dissolved in 100 μL of DMSO. Absorbance was measured at 595 nm in plate spectrophotometer (Varioskan Flash, Thermo Scientific). […] IC50 values and their 95% confidence intervals for two different experiments were obtained by non linear regression using Graphpad Prism version 5.0 for Windows (GraphPad Software, San Diego, Calif., USA).

In assay [2] the test system is HL-60 (promyelocytic leukemia). Briefly: MTT reduction cytotoxicity assay, HL-60. It counts as cell-based. Conditions: Homo sapiens, HL-60, MTT, 72 h incubation. Here is the method:
as §1
(Formazan colour is commonly taken as a measure of viable cells.)

A further assay deals with B. cereus. The experiment in a line: Paper disk diffusion antibacterial test, B. cereus. The format is cell-based, Bacillus cereus. The following applies: gram-(+) strain, 24 h at 28° C. Here is the method:
(§2) 235 mg alkaloids were extracted from 750 g leaves from the plant, Gaultheria procumbens (also called American wintergreen, teaberry, or boxberry). Fractionation of the crude extract was guided by antimicrobial activity against several gram-(+) and gram-(−) strains: Enterobacter aerogenes (Gram-negative rods), Bacillus cereus (Gram-positive rods), and Sarcina lutea (Gram-positive […]), using the paper disk diffusion method (Barry, A. L.; Thornsbery, C. Identification for Clinical Microbiology, 4th ed.; Washington, D.C., 1985; p 978) supplied within the Science Kit & Boreal Laboratories Antibiotic Effects Kit. The SK Antibiotics Effect Kit uses “Easygel” instead of agar dishes. Each paper disk (6 mm) containing approximately 100 μg of the extract was placed directly onto an Easygel plate, which had been freshly inoculated with either a gram-(+) or (−) strain. In addition, a standard antibiotic disk (30 μg of either penicillin, tetracycline, or chloramphenicol supplied within Science Kit & Boreal Laboratories Antibiotic Effects Kit) as well as a blank disk (with only solvent) were placed on the freshly inoculated Easygel plate. […] 45 mg (6R)-6-[(2Z)-pent-2-enyl]-5,6-dihydro-2H-pyran-2-one [(R)-(−)-Tuberolactone] were isolated (MW. 166.0989 g/mol). […]
For orientation: A growth-free zone around the sample is the usual read-out of agar diffusion tests.

For the next assay, the system named is S. lutea. The experiment in a line: Paper disk diffusion antibacterial test, S. lutea. It counts as cell-based, Sarcina lutea. The following applies: gram-(+) strain, 24 h at 28° C. The protocol:
as §2

Assay [3] has as its system MCF-7 (breast adenocarcinoma). The experiment in a line: MTT reduction cytotoxicity assay, MCF-7. The following applies: Homo sapiens, MCF7, MCF-7, MTT, 72 h incubation. The format is cell-based. The protocol:
as §1

Another assay relates to E. aerogenes. Briefly: Paper disk diffusion antibacterial test, E. aerogenes. The format is cell-based, Enterobacter aerogenes. The following applies: gram-(−) strain, 24 h at 28° C. The protocol: as §2

Data on two compounds can be found in patent publication US10149830B2, “Pharmaceutical agents and methods relating thereto” (Cushing Academy, priority 2016, dated 2018).

As usually defined, the IC50 is the concentration that inhibits the measured activity by half. On to `COc1cccc2c1C(=O)c1c(O)c3c(c(O)c1C2=O)C[C@@](O)(C(=O)CO)C[C@@H]3O[C@H]1C[C@H](N)[C@H](O)[C@H](C)O1` [Doxorubicin, reference compound], for which the values for the IC50 in assay [1] (two experiments), in assay [1] (value in parentheses) and in assay [2] (two experiments) were 0.2 µg/mL, 0.36 µM and 0.02 µg/mL, respectively.

Consider `CC/C=C\C[C@@H]1CC=CC(=O)O1` [Tuberolactone, (6R)-6-[(2Z)-pent-2-enyl]-5,6-dihydro-2H-pyran-2-one], for which, in the assay with B. cereus, the “antibacterial activity against B. cereus” value is “confirmed”. Further, the IC50 in assay [1] (two experiments) came out at 5.9 µg/mL; in assay [1] (value in parentheses), 35.5 µM; in assay [3] (two experiments), 6.4 µg/mL; in assay [3] (value in parentheses) it was 38.5 µM; in assay [2] (two experiments) it was 4.4 µg/mL; in assay [2] (value in parentheses), 26 µM. Also, the “antibacterial activity against S. lutea” value in the assay on S. lutea is recorded as “confirmed”. Besides, the “antibacterial activity against E. aerogenes” value in the assay on E. aerogenes was “confirmed”.
